Results: PubChem BioAssay AID2060604 (Molecular Pharmacology Branch, DTP, NCI, 2025)
Values joined by “and” are separate entries in the source; they are usually repeats but may differ in a detail not shown here. Identical values can stand only once. Each block holds one molecule with its values, some of them ahead of it.

Test system: 379773-124-R-J2-PDC complex spheroids, viability % test/control
Assay: Anticancer human tumor 379773-124-R-J2-PDC patient-derived endometrial carcinoma cell line growth inhibition [CLK]
Details: for viability, T/C: stronger effect = lower value
From the text: A high-throughput screen of multi-cell type tumor spheroids was designed to identify active combinations of […] and targeted small molecules. Complex spheroids include a stromal component modeled by human endothelial cells (HUVEC) and fibroblasts modeled by human mesenchymal stem cells (MSCs). The concentration ranges selected for each drug and investigational agent were based upon clinically achievable concentrations if the clinical Cmax of the agent was known.
Compounds. The drugs and investigational agents: cirtuvivint (SM08502; NSC835563), CC-671 (NSC850746), vemurafenib (NSC761431), tapotoclax (NSC804041), sotorasib (NSC818433), adagrasib (NSC831453), MRTX-1133 (NSC836407), BAY2416964 (NSC825713), copanlisib (NSC816437), inavolisib (NSC800729), abemaciclib (NSC768073), osimertinib (NSC779217), entinostat (NSC756642), eltanexor (KPT-8602, NSC794443), venetoclax (NSC766270), ceralasertib (NSC777638), bortezomib (NSC756655), olaparib (NSC753686), talazoparib (NSC767125), alisertib (NSC759677), peposertib (NSC802822), gemcitabine (NSC613327), 5-fluorouracil (NSC19893), SN-38 (NSC673596), oxaliplatin (NSC266046), paclitaxel (NSC125973), and doxorubicin (NSC123127), were obtained from the National Cancer Institute (NCI) Developmental Therapeutics Program Chemical Repository. The FDA-approved anticancer drug set is available from the Developmental Therapeutics Program at https://dtp.cancer.gov/organization/dscb/obtaining/available plates.htm. […] The stock solutions were prepared in dimethyl sulfoxide (DMSO, Sigma-Aldrich, St. Louis, MO, cat. D2650), except for the platinum complexes which were prepared in saline (Quality Biological, Gaithersburg, MD, cat. 114-055-101), at 800-fold the tested concentration and stored at -70 degrees C prior to their use. All drugs and investigational agents were tested over a range starting from a high concentration at or near the clinical Cmax and decreasing in half-log increments. If the clinical Cmax for an agent had not been determined, the highest concentration tested was 10 microM.
Cell Culture. All cells were maintained in an incubator at 37 degrees C and 5% CO2 with 95% humidity. The PDC lines were cultured according to standard operating procedures established by the NCI PDMR. Briefly, all PDCs were thawed and cultured in Matrigel-coated flasks prepared with a working solution of 1X Ham's F-12 nutrient mix, without supplementation (Invitrogen, Waltham, MA, cat. 11765054), 100 U/mL penicillin-streptomycin (Invitrogen, cat. 15140122), and 2.5% Matrigel (Corning Inc., Corning, NY, cat. 354248) for the first three passages. The 947758-054-R-J2-PDC line was cultured in 6B/Colon 1A media, which includes advanced DMEM/F-12 (Thermo Fisher Scientific, cat. 12634028), 10 mM HEPES (Thermo Fisher Scientific, cat. 15630080), 1X GlutaMAX supplement (Thermo Fisher Scientific, cat. 35050061), 0.1 mg/mL primocin (InvivoGen, cat. ant-pm-2), 10% defined fetal bovine serum, heat inactivated (HyClone Laboratories Inc., cat. SH30070.03HI), 1.25 mM N-Acetyl-L-cysteine (Sigma-Aldrich, cat. A9165), 10 mM nicotinamide (Sigma-Aldrich, cat. N0636), 1X B-27 supplement (Thermo Fisher Scientific, cat. 17504044), 1X N-2 supplement (Thermo Fisher Scientific, cat. 17502048), and 10 microM Y-27632 dihydrochloride (Tocris Bioscience, cat. 1254). The 876862-298-R-J1-PDC was cultured in 6E media, which includes all 6B/Colon 1A media components plus 50% L-WRN conditioned media (ATCC, cat. CRL-3276), 50 ng/mL recombinant human EGF recombinant protein (hEGF; Thermo Fisher Scientific, cat. PHG0311), 10 ng/mL recombinant human fibroblast growth factor 10 (hGFG-10; PeproTech, cat. 100-26), 1 ng/mL recombinant human fibroblast growth factor 2 (hFGF-2; PeproTech, cat. 100-18B), and 1 µM prostaglandin E2 (PGE2; Tocris, cat. 2296). The 227483-062-R1-J1-PDC line was cultured in Panc media, containing all 6E components except hFGF-2, with the addition of 500 nM SB-431542 (Selleckchem, cat. S1067) and 10 nM gastrin (Tocris, cat. 3006). […]
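Note: compound exposure lasted seven days before the viability readout.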
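Throughout, for viability, T/C: 100% = DMSO vehicle control wells.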

IC50 (curve of compound): < 31.6 nM
SMILES: CC(=O)O[C@H]1C(=O)[C@@]2(C)[C@H]([C@H](OC(=O)c3ccccc3)[C@]3(O)C[C@H](OC(=O)[C@H](O)[C@@H](NC(=O)c4ccccc4)c4ccccc4)C(C)=C1C3(C)C)[C@]1(OC(C)=O)CO[C@@H]1C[C@@H]2O
viability, T/C (compound 0.0316 µM): 6.12% and 4.78%
viability, T/C (compound 0.1 µM): 5.31% and 6.44%
viability, T/C (compound 0.316 µM): 6.35% and 7.02%
viability, T/C (compound 1 µM): 6.24% and 5.61%
viability, T/C (compound 3.16 µM): 4.99% and 3.42%
viability, T/C (compound 10 µM): 6.18% and 4.64%

IC50 (curve of compound): 5670 nM and 6250 nM
SMILES: COc1ccc([C@@H](O)c2cc(-c3ncnc4cc(N5CCOCC5)ccc34)c(F)cc2Cl)nn1
viability, T/C (compound 0.0316 µM): 95.4% and 83.8%
viability, T/C (compound 0.1 µM): 98.1% and 79.4%
viability, T/C (compound 0.316 µM): 81.3% and 79.2%
viability, T/C (compound 1 µM): 84.2% and 84.5%
viability, T/C (compound 3.16 µM): 68% and 79%
viability, T/C (compound 10 µM): 33.4% and 29.9%

IC50 (curve of compound): 34.5 nM and < 31.6 nM
SMILES: COc1cccc2c1C(=O)c1c(O)c3c(c(O)c1C2=O)CC(O)(C(=O)CO)CC3OC1CC(N)C(O)C(C)O1 (stereo not drawn)
viability, T/C (compound 0.0316 µM): 53.6% and 49.6%
viability, T/C (compound 0.1 µM): 9.76% and 9.37%
viability, T/C (compound 0.316 µM): 7.51% and 5.56%
viability, T/C (compound 1 µM): 3.51% and 3.77%
viability, T/C (compound 3.16 µM): 1.61% and 0.59%
viability, T/C (compound 10 µM): 0.12% and 0.15%

SMILES: C=CC(=O)N1CCN(c2nc(=O)n(-c3c(C)ccnc3C(C)C)c3nc(-c4c(O)cccc4F)c(F)cc23)C(C)C1 (stereo not drawn) + CN1CCN(c2cc(C(=O)Nc3cc4cc(-c5cnn(C)c5)ccc4cn3)ccn2)CC1
IC50 (curve of first compound, second compound 0.0316 µM): > 10000 nM
IC50 (curve of first compound, second compound 0.1 µM): > 10000 nM
IC50 (curve of first compound, second compound 0.316 µM): < 31.6 nM
IC50 (curve of first compound, second compound 1 µM): < 31.6 nM
IC50 (curve of first compound, second compound 3.16 µM): < 31.6 nM
IC50 (curve of first compound, second compound 10 µM): < 31.6 nM
viability, T/C (second compound 0.0316 µM, first compound 0.0316 µM): 105%
viability, T/C (second compound 0.0316 µM, first compound 0.1 µM): 92.5%
viability, T/C (second compound 0.0316 µM, first compound 0.316 µM): 91.2%
viability, T/C (second compound 0.0316 µM, first compound 1 µM): 94.4%
viability, T/C (second compound 0.0316 µM, first compound 3.16 µM): 84.6%
viability, T/C (second compound 0.0316 µM, first compound 10 µM): 75.2%
viability, T/C (second compound 0.1 µM, first compound 0.0316 µM): 85.5%
viability, T/C (second compound 0.1 µM, first compound 0.1 µM): 79.2%
viability, T/C (second compound 0.1 µM, first compound 0.316 µM): 72.5%
viability, T/C (second compound 0.1 µM, first compound 1 µM): 88.1%
viability, T/C (second compound 0.1 µM, first compound 3.16 µM): 84.2%
viability, T/C (second compound 0.1 µM, first compound 10 µM): 62.5%
viability, T/C (second compound 0.316 µM, first compound 0.0316 µM): 29.6%
viability, T/C (second compound 0.316 µM, first compound 0.1 µM): 32.8%
viability, T/C (second compound 0.316 µM, first compound 0.316 µM): 29.3%
viability, T/C (second compound 0.316 µM, first compound 1 µM): 29.2%
viability, T/C (second compound 0.316 µM, first compound 3.16 µM): 38.5%
viability, T/C (second compound 0.316 µM, first compound 10 µM): 13.2%
viability, T/C (second compound 1 µM, first compound 0.0316 µM): 0.15%
viability, T/C (second compound 1 µM, first compound 0.1 µM): 3.06%
viability, T/C (second compound 1 µM, first compound 0.316 µM): 0.25%
viability, T/C (second compound 1 µM, first compound 1 µM): 1.12%
viability, T/C (second compound 1 µM, first compound 3.16 µM): 1.01%
viability, T/C (second compound 1 µM, first compound 10 µM): 0.17%
viability, T/C (second compound 3.16 µM, first compound 0.0316 µM): 0.18%
viability, T/C (second compound 3.16 µM, first compound 0.1 µM): 0.13%
viability, T/C (second compound 3.16 µM, first compound 0.316 µM): 0.13%
viability, T/C (second compound 3.16 µM, first compound 1 µM): 0.34%
viability, T/C (second compound 3.16 µM, first compound 3.16 µM): 1.33%
viability, T/C (second compound 3.16 µM, first compound 10 µM): 1.3%
viability, T/C (second compound 10 µM, first compound 0.0316 µM): 0.12%
viability, T/C (second compound 10 µM, first compound 0.1 µM): 0.54%
viability, T/C (second compound 10 µM, first compound 0.316 µM): 1.42%
viability, T/C (second compound 10 µM, first compound 1 µM): 0.17%
viability, T/C (second compound 10 µM, first compound 3.16 µM): 1.04%
viability, T/C (second compound 10 µM, first compound 10 µM): 0.5%
